Test results from patent publication US5932410A, “Assay for the detection of proteases” (Commonwealth Scientific and Industrial Research …, priority 1994, dated 1999).
Where a SMILES comes first, the peptide text is derived from it. The star is where a group is joined. Cbz = O=C(OCc1ccccc1)*

How the values were obtained:
[1] = biological target: prostate specific antigen (PSA) (Homo sapiens, UniProt P07288); assay: Esterase assay, PSA on peptide ester substrates; assay type: biochemical; settings: for Rate relative to Ac-AlaValTyr-OMe (218): rate of hydrolysis; for Substrate preference of PSA: within the substrate series tested
prostate specific antigen (PSA), sequence (P07288 25-261): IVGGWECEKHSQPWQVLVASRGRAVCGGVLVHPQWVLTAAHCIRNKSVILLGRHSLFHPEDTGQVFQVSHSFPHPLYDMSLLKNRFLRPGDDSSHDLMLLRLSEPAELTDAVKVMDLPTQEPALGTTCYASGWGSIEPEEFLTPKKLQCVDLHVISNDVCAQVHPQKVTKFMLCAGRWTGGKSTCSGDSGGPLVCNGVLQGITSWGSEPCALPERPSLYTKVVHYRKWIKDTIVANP
From the text: (§1) Advantage was taken of this activity to develop an "esterase" assay which uses a pH indicator to visualise the hydrogen ion release caused by the action of proteases on peptide-ester substrates. A series of twenty compounds of the form, carbobenzoxy alanyl-X-methyl ester (Z-AX-OMe) were synthesised where "X" is one of the naturally occurring amino acids. These substrates were used in a 96 well microtitre plate assay to screen each mutant enzyme for activity and specificity. The reactions were followed visually or quantified using a standard ELISA plate reader.
In all eleven compounds were synthesised and purified and tested where X was the residue listed below.

[2] = biological target: α-Lytic protease (Lysobacter enzymogenes, UniProt P00778); assay: Esterase assay, α-lytic protease; assay type: biochemical; settings: Z-AX-OMe substrate; for Esterase rate, α-Lytic protease: X = P1 residue, rates approximately ± 10%; for % activity, α-Lytic protease: normalised to alanine
α-Lytic protease, sequence (P00778 25-397 limits assumed): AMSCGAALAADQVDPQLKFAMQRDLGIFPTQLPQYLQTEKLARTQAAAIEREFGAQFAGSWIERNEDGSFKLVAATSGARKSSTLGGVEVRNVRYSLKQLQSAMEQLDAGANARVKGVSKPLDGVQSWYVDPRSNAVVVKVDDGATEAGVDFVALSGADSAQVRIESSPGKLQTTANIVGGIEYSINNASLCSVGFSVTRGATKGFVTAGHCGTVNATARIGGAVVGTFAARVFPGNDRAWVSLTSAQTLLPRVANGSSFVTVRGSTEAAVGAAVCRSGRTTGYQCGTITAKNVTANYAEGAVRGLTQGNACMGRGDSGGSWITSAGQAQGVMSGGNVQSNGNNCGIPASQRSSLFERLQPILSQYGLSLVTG
From the text: as §1, with “reader. The esterase assay, using trypsin as a test enzyme and Z-Ala-Arg-OMe as substrate, was more sensitive as than traditional trypsin substrates (three times the rate obtained with benzoyl arginine ethyl aster and twenty times the rate of benzoyl arginine p-nitroanilide) (Whittaker et al., Analytical Biochemistry, 220, 238-243, 1994).” for “reader.”
(§2) The present inventors produced a panel of substrates carbobenzoxy alanyl-X-methyl eater (Z-AX-OMe) where X is one of the naturally occurring amino acids. The reactivity of these substrates with a number of serine proteases is set out in Table 1 and FIG. 1.
(§3) Rates are A580 change/min./mg protease. Rates are also shown as a […]

[3] = test system: Subtilisin; assay: Esterase assay, subtilisin; assay type: biochemical; settings: Z-AX-OMe substrate; for Esterase rate, Subtilisin: X = P1 residue, rates approximately ± 10%; for % of maximum activity, Subtilisin: percentage of the maximum activity
From the text: as §1, with “reader. The esterase assay, using trypsin as a test enzyme and Z-Ala-Arg-OMe as substrate, was more sensitive as than traditional trypsin substrates (three times the rate obtained with benzoyl arginine ethyl aster and twenty times the rate of benzoyl arginine p-nitroanilide) (Whittaker et al., Analytical Biochemistry, 220, 238-243, 1994).” for “reader.”
as §2, §3

[4] = biological target: Proteinase K (Parengyodontium album, UniProt P06873); assay: Esterase assay, proteinase K; assay type: biochemical; settings: Z-AX-OMe substrate; for Esterase rate, Proteinase K: X = P1 residue, rates approximately ± 10%; for % of maximum activity, Proteinase K: percentage of the maximum activity
Proteinase K, sequence (P06873 106-384): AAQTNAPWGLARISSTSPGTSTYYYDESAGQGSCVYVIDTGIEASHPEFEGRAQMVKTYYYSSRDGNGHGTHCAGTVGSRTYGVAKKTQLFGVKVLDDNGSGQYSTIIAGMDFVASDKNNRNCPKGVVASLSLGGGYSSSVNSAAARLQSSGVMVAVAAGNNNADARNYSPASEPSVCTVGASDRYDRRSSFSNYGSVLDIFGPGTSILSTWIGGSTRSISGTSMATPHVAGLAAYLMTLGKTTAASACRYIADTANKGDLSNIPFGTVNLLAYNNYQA
From the text: as §1, with “reader. The esterase assay, using trypsin as a test enzyme and Z-Ala-Arg-OMe as substrate, was more sensitive as than traditional trypsin substrates (three times the rate obtained with benzoyl arginine ethyl aster and twenty times the rate of benzoyl arginine p-nitroanilide) (Whittaker et al., Analytical Biochemistry, 220, 238-243, 1994).” for “reader.”
as §2, §3

[5] = biological target: Chymotrypsin (Bos taurus, UniProt P00766); assay: Esterase assay, chymotrypsin; assay type: biochemical; settings: Z-AX-OMe substrate; for Esterase rate, Chymotrypsin: X = P1 residue, rates approximately ± 10%; for % of maximum activity, Chymotrypsin: percentage of the maximum activity
From the text: as §1, with “reader. The esterase assay, using trypsin as a test enzyme and Z-Ala-Arg-OMe as substrate, was more sensitive as than traditional trypsin substrates (three times the rate obtained with benzoyl arginine ethyl aster and twenty times the rate of benzoyl arginine p-nitroanilide) (Whittaker et al., Analytical Biochemistry, 220, 238-243, 1994).” for “reader.”
as §2, §3

[6] = test system: Trypsin; assay: Esterase assay, trypsin; assay type: biochemical; settings: Z-AX-OMe substrate; for Esterase rate, Trypsin: X = P1 residue, rates approximately ± 10%; for % of maximum activity, Trypsin: percentage of the maximum activity
From the text: as §1, with “reader. The esterase assay, using trypsin as a test enzyme and Z-Ala-Arg-OMe as substrate, was more sensitive as than traditional trypsin substrates (three times the rate obtained with benzoyl arginine ethyl aster and twenty times the rate of benzoyl arginine p-nitroanilide) (Whittaker et al., Analytical Biochemistry, 220, 238-243, 1994).” for “reader.”
as §2, §3

[7] = test system: Trypsin; settings: trypsin as test enzyme; cited from earlier work
[8] = biological target: Thrombin (Homo sapiens, UniProt P00734); assay: Esterase assay, thrombin; assay type: biochemical; settings: Z-AX-OMe substrate; for Esterase rate, Thrombin: X = P1 residue, rates approximately ± 10%; for % of maximum activity, Thrombin: percentage of the maximum activity
From the text: as §1, with “reader. The esterase assay, using trypsin as a test enzyme and Z-Ala-Arg-OMe as substrate, was more sensitive as than traditional trypsin substrates (three times the rate obtained with benzoyl arginine ethyl aster and twenty times the rate of benzoyl arginine p-nitroanilide) (Whittaker et al., Analytical Biochemistry, 220, 238-243, 1994).” for “reader.”
as §2, §3

[9] = biological target: Elastase (Sus scrofa, UniProt P00772); assay: Esterase assay, elastase; assay type: biochemical; settings: Z-AX-OMe substrate; for Esterase rate, Elastase: X = P1 residue, rates approximately ± 10%; for % activity, Elastase: normalised to alanine
Elastase, sequence (P00772 27-266): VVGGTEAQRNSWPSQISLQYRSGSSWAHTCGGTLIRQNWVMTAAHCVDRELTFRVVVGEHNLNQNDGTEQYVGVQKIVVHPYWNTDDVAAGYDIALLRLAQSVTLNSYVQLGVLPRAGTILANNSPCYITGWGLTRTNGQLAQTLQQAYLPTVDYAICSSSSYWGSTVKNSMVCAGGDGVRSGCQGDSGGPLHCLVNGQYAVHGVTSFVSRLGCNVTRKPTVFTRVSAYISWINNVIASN
From the text: as §1, with “reader. The esterase assay, using trypsin as a test enzyme and Z-Ala-Arg-OMe as substrate, was more sensitive as than traditional trypsin substrates (three times the rate obtained with benzoyl arginine ethyl aster and twenty times the rate of benzoyl arginine p-nitroanilide) (Whittaker et al., Analytical Biochemistry, 220, 238-243, 1994).” for “reader.”
as §2, §3

[10] = substrates of the form Ac-Ala-x-TyrOMe, FIG. 2

Compound | Esterase rate, α-Lytic protease [2] | % activity, α-Lytic protease [2] | Esterase rate, Subtilisin [3] | % of maximum activity, Subtilisin [3] | Esterase rate, Proteinase K [4] | % of maximum activity, Proteinase K [4] | Esterase rate, Chymotrypsin [5] | % of maximum activity, Chymotrypsin [5] | Esterase rate, Trypsin [6] | % of maximum activity, Trypsin [6] | Esterase rate, Thrombin [8] | % of maximum activity, Thrombin [8] | Esterase rate, Elastase [9] | % activity, Elastase [9] | other results
COC(=O)[C@H](Cc1ccc(O)cc1)NC(=O)[C@H](CC(C)C)NC(=O)[C@H](C)NC(C)=O [Ac-AlaLeuTyr-OMe] (Ac-Ala-Leu-Tyr-OMe) | – | – | – | – | – | – | – | – | – | – | – | – | – | – | Rate relative to Ac-AlaValTyr-OMe (218) ([1]; PSA): 70%
COC(=O)[C@H](Cc1ccc(O)cc1)NC(=O)[C@@H](NC(=O)[C@H](C)NC(=O)[C@@H](NC(C)=O)C(C)C)C(C)C [Ac-Val AlaValTyr-OMe] (Ac-VAVY-OMe) | – | – | – | – | – | – | – | – | – | – | – | – | – | – | Rate relative to Ac-AlaValTyr-OMe (218) ([1]; PSA): 64.6%
COC(=O)[C@H](CCCNC(=N)N)NC(=O)[C@H](C)NC(=O)OCc1ccccc1 [Arg, Z-Ala-Arg-OMe] (Cbz-Ala-Arg-OMe) | 0 A580 change/min./mg protease | 0% | 97 A580 change/min./mg protease | 4.5% | 24 A580 change/min./mg protease | 3.1% | 1.1 A580 change/min./mg protease | 2.0% | 355.4 A580 change/min./mg protease | 100% | 8.7 A580 change/min./mg protease | 100% | 0 A580 change/min./mg protease | 0% | Rate relative to benzoyl arginine ethyl ester [7]: three times; Rate relative to benzoyl arginine p-nitroanilide [7]: twenty times
COC(=O)[C@@H]1CCCN1C(=O)[C@H](C)NC(=O)OCc1ccccc1 [Pro] (Cbz-Ala-Pro-OMe) | 0 A580 change/min./mg protease | 0% | trace | – | trace | – | 0 A580 change/min./mg protease | 0% | 0 A580 change/min./mg protease | 0% | 0 A580 change/min./mg protease | 0% | 0 A580 change/min./mg protease | 0% | –
COC(=O)[C@H](CO)NC(=O)[C@H](C)NC(=O)OCc1ccccc1 [Ser] (Cbz-Ala-Ser-OMe) | 0.7 A580 change/min./mg protease | 11.3% | 366 A580 change/min./mg protease | 17.0% | 348 A580 change/min./mg protease | 44.9% | trace | – | 0 A580 change/min./mg protease | 0% | 0 A580 change/min./mg protease | 0% | 0.4 A580 change/min./mg protease | 3.6% | –
COC(=O)[C@H](Cc1ccc(O)cc1)NC(=O)[C@@H](NC(=O)[C@H](C)NC(C)=O)C(C)C [Substrate 218, Ac-AlaValTyr-OMe] (Ac-Ala-Val-Tyr-OMe) | – | – | – | – | – | – | – | – | – | – | – | – | – | – | Rate relative to Z-AlaTyr OMe (the screening substrate) ([1]; PSA, from the graph (FIG. 2)): 15.5; Substrate preference of PSA [1]: best
COC(=O)[C@@H](NC(=O)[C@H](C)NC(=O)OCc1ccccc1)[C@@H](C)O [Thr] (Cbz-Ala-Thr-OMe) | 4.2 A580 change/min./mg protease | 67.7% | 123 A580 change/min./mg protease | 5.7% | 90 A580 change/min./mg protease | 11.6% | trace | – | 0 A580 change/min./mg protease | 0% | 0 A580 change/min./mg protease | 0% | 3.1 A580 change/min./mg protease | 19.7% | –
COC(=O)[C@H](Cc1c[nH]c2ccccc12)NC(=O)[C@H](C)NC(=O)OCc1ccccc1 [Trp] (Cbz-Ala-Trp-OMe) | 0 A580 change/min./mg protease | 0% | 216 A580 change/min./mg protease | 10.1% | 353 A580 change/min./mg protease | 45.5% | 27.2 A580 change/min./mg protease | 49.3% | trace | – | 0 A580 change/min./mg protease | 0% | 0 A580 change/min./mg protease | 0% | –
COC(=O)[C@H](Cc1ccc(O)cc1)NC(=O)[C@H](C)NC(=O)OCc1ccccc1 [Tyr, Z-Ala-Tyr-OMe] (Cbz-Ala-Tyr-OMe) | 0 A580 change/min./mg protease | 0% | 345 A580 change/min./mg protease | 16.1% | 80 A580 change/min./mg protease | 10.3% | 55.2 A580 change/min./mg protease | 100% | 10.8 A580 change/min./mg protease | 3.0% | 0 A580 change/min./mg protease | 0% | 0 A580 change/min./mg protease | 0% | Substrate preference of PSA [1]: preferred substrate
COC(=O)[C@@H](NC(=O)[C@H](C)NC(=O)OCc1ccccc1)C(C)C [Val] (Cbz-Ala-Val-OMe) | 1.3 A580 change/min./mg protease | 21.0% | 35 A580 change/min./mg protease | 1.6% | 97 A580 change/min./mg protease | 12.5% | 0 A580 change/min./mg protease | 0% | 0 A580 change/min./mg protease | 0% | 0 A580 change/min./mg protease | 0% | 2.1 A580 change/min./mg protease | 13.4% | –
PSA: prostate specific antigen, a protease; the enzyme tested on the substrates | – | – | – | – | – | – | – | – | – | – | – | – | – | – | Rate of PSA [1, 10]: 0.0263 OD580 change/min/μg; Rate of PSA, equivalent [1, 10]: 9.99 μmoles substrate/min/mg
